Tests used:
CFTR ΔF508 mutant = molecular target: T1, CFTR ΔF508 mutant (Homo sapiens, UniProt P13569, DEL508-508); assay: YFP-halide influx assay for the CFTR-ΔF508 mutation (CFBE41o- cells); format: cell-based; conditions: forskolin 10.67 μM; for EC50: from (1−F/F0) vs concentration plot
T1 construct: expressed in transfected cells; host or cells: CFBE41o- cells, adenoviral transduction
From the text: The YFP halide influx assay measured the functionality of the cystic fibrosis Transmembrane Conductance regulator (CFTR) channels in the cystic fibrosis bronchial epithelium cell line CFBE41o-. The assay was used to evaluate the capacity of compounds to increase the open probability of existing CFTR channels in the membrane. It makes use of the observation that the yellow fluorescent protein (YFP) variant YFP H148Q, I152L, F47L has its fluorescence substantially quenched by halide ions like Cl^− and I^− (Galietta, L. J. V., Haggie, P. M., Verkman, A. S., 2001. Green fluorescent protein-based halide indicators with improved chloride and iodide affinities. FEBS Lett. 499, 220-224. doi:10.1016/S0014-5793(01)02561-3; Nagai, T., Ibata, K., Park, E. S., Kubota, M., Mikoshiba, K., Miyawaki, A., 2002. A variant of yellow fluorescent protein with fast and efficient maturation for cell-biological applications. Nat. Biotechnol. 20, 87-90. doi: 10.1038/nbt0102-87).
For this purpose, CFBE41o-cells were seeded in 384 well plates (3000 CFBE cells/well). One day after seeding, the CFBE cells were transduced with adenoviral vectors that direct the expression of the CFTR ΔF508 mutant and of the YFP reporter. Cells were incubated at 27° C., 5% CO2 for 24 hours so as to allow for the proper folding and migration to the membrane of the CFTR channel or treated with a CFTR modulator during 24 hours at 37° C.
(§1) The I-induced quenching of fluorescence was recorded on an immediately after injection of iodide for 2 minutes on an FDSS/μCell (Hamamatsu). The capacity of a compound to increase the channel opening was directly correlated with the decrease in fluorescence, and was expressed as (1−(fluorescence after 36 seconds (F)/fluorescence before injection (F0))) and an EC50 was derived from a (1−F/F0) vs compound concentration plot.

CFTR G551D mutant = molecular target: T2, CFTR G551D mutant (Homo sapiens, UniProt P13569, G551D); assay: YFP-halide influx assay for the CFTR-G551D mutation (HEK293 cells); format: cell-based; conditions: forskolin 10.67 μM
T2 construct: expressed in transfected cells; host or cells: HEK293 cells, reverse transfection with plasmids
T2 sequence (P13569 whole entry G551D): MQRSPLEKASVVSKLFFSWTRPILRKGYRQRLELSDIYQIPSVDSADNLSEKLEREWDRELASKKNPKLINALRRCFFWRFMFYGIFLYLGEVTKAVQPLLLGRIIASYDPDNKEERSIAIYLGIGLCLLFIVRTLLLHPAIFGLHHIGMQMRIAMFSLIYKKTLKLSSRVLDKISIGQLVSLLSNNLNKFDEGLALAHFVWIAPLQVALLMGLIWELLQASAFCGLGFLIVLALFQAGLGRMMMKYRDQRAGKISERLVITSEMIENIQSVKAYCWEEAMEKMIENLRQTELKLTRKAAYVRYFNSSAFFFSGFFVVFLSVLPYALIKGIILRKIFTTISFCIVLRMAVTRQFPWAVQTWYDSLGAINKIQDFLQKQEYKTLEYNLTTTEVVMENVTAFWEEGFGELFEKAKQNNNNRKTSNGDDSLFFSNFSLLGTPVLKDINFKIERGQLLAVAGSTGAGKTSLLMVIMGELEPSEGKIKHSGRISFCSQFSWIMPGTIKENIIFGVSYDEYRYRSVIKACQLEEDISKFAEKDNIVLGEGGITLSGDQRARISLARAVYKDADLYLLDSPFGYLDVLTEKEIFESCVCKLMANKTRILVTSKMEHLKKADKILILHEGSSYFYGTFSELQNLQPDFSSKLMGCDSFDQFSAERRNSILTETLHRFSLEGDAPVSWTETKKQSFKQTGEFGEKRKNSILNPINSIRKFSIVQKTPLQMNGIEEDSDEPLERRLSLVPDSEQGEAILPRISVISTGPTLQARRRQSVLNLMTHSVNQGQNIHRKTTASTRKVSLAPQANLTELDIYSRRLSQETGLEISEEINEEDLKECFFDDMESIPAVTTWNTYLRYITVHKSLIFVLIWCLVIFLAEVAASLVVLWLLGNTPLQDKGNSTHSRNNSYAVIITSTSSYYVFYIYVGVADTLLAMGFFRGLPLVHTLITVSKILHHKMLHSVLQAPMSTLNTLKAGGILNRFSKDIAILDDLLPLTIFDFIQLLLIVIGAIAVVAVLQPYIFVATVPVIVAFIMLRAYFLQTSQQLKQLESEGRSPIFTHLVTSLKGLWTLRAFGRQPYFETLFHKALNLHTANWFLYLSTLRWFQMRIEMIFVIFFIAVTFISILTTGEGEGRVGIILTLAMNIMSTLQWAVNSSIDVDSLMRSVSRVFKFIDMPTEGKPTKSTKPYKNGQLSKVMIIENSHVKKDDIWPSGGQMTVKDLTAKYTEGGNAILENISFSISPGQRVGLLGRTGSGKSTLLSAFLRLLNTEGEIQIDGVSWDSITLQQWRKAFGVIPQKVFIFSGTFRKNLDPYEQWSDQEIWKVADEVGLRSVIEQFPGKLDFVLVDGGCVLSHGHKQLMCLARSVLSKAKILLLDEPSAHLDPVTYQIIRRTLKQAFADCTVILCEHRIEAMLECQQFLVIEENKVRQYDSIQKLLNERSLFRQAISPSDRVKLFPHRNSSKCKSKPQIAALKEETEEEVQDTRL
From the text: The YFP halide influx assay measured the functionality of the cystic fibrosis Transmembrane Conductance regulator (CFTR) channels. The assay was used to evaluate the capacity of compounds to increase the channel opening of existing mutant CFTR channels in the membrane. It makes use of the observation that the yellow fluorescent protein (YFP) variant YFP H148Q, I152L, F47L has its fluorescence substantially quenched by halide ions like Cl^− and I^− (Galietta, L. J. V., Haggie, P. M., Verkman, A. S., 2001. Green fluorescent protein-based halide indicators with improved chloride and iodide affinities. FEBS Lett. 499, 220-224. doi:10.1016/S0014-5793(01)02561-3).
For this purpose, HEK293-cells were seeded in 96 well plates. During seeding, the cells were reverse-transfected with plasmid vectors that direct the expression of the CFTR G551D mutant and of the YFP reporter. Cells were incubated at 37° C., 5% CO2 for 24 hours so as to allow for sufficient expression of the CFTR protein.
as §1, with “I^−-induced” for “I-induced”, “recorded” for “recorded on an”, “I^−” for “iodide”, “7 seconds.” for “2 minutes on an FDSS/μCell (Hamamatsu).”, “7” for “36”

T1 sequence (P13569 with tags, fused parts or gaps DEL508-508): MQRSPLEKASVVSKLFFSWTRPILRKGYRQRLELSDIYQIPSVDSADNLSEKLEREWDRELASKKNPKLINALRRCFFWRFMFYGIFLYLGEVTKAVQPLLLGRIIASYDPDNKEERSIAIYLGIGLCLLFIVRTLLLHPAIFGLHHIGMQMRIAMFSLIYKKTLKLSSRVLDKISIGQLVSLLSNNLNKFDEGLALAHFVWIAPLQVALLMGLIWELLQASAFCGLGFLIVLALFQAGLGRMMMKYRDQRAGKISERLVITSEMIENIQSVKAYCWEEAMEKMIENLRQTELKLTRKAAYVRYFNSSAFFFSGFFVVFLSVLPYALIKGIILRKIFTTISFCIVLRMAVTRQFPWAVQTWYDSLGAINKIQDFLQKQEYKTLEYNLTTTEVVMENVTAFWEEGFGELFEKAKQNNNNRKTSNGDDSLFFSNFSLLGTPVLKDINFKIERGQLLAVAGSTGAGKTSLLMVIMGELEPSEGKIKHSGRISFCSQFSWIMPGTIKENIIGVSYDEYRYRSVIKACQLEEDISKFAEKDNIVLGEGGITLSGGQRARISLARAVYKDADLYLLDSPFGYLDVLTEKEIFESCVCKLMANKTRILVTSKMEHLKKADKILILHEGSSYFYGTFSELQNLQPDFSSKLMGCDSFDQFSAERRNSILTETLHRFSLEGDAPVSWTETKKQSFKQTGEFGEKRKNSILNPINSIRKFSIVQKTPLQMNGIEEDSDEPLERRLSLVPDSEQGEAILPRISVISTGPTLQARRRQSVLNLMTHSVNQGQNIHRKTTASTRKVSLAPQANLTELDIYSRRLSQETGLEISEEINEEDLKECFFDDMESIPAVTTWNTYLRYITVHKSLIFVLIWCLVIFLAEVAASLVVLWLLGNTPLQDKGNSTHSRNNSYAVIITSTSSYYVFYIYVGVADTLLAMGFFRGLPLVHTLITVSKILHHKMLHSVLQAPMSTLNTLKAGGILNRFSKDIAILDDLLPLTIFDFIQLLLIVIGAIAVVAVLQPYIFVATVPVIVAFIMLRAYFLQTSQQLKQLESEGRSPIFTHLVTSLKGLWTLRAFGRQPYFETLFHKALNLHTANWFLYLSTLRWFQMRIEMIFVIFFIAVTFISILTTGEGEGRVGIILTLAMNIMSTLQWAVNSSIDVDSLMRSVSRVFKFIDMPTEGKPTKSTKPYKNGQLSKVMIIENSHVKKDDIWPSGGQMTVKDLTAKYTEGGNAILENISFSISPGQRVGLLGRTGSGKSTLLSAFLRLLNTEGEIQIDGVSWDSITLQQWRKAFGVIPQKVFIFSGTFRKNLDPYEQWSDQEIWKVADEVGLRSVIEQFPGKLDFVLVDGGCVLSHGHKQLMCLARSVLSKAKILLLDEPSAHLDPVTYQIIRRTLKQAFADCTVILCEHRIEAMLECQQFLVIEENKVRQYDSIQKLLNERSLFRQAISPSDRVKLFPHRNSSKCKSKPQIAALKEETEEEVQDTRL

Row | Compound | % Activation (CFTR ΔF508 mutant) | EC50 (CFTR ΔF508 mutant) | % Activation (CFTR G551D mutant) | EC50 (CFTR G551D mutant)
1 | CC(C)(O)CNC(=O)c1ncc(S(=O)(=O)c2cccc(F)c2)cc1N [Compound 39, 3-amino-5-[(3-fluorophenyl)sulfonyl]-N-(2-hydroxy-2-methylpropyl)pyridine-2-carboxamide] | 42.5% | 0.155 µM | 5.0% | > 10 µM
2 | CC(C)OCCNC(=O)c1ncc(S(=O)(=O)c2ccc(C(F)(F)F)cc2)cc1N [Compound 192, 3-amino-N-[2-(propan-2-yloxy)ethyl]-5-{[4-(trifluoromethyl)phenyl]sulfonyl}pyridine-2-carboxamide] | 101.5% | 0.0388 µM | 58.4% | 0.868 µM
3 | Nc1cc(S(=O)(=O)c2ccc(OC(F)(F)F)cc2)cnc1C(=O)N[C@@H]1CCCOC1 [Compound 140, 3-amino-N-[(3R)-tetrahydro-2H-pyran-3-yl]-5-{[4-(trifluoromethoxy)phenyl]sulfonyl}pyridine-2-carboxamide] | 97.7% | 0.051 µM | 39.9% | > 10 µM
4 | COCC(O)CNC(=O)c1ncc(S(=O)(=O)c2ccc(C(F)(F)F)cc2)cc1N (stereo not shown) [Compound 239, 3-amino-N-(2-hydroxy-3-methoxypropyl)-5-{[4-(trifluoromethyl)phenyl]sulfonyl}pyridine-2-carboxamide] | 95.8% | 0.0295 µM | 76.5% | 1.05 µM
5 | CC1(O)CN(C(=O)c2ncc(S(=O)(=O)c3ccc(OC(F)(F)F)cc3)cc2N)C1 [Compound 89, (3-amino-5-{[4-(trifluoromethoxy)phenyl]sulfonyl}pyridin-2-yl)(3-hydroxy-3-methylazetidin-1-yl)methanone] | 99.6% | 0.0069 µM | 53.6% | > 3.33 µM
6 | COC[C@H](O)CNC(=O)c1ncc(S(=O)(=O)c2ccccc2)cc1N [Compound 296, 3-amino-N-[(2R)-2-hydroxy-3-methoxypropyl]-5-(phenylsulfonyl)pyridine-2-carboxamide] | 82.1% | 0.04 µM | – | –
7 | Nc1cc(S(=O)(=O)c2ccc(C(F)(F)F)cc2F)cnc1C(=O)N1CC(F)(F)C1 [Compound 164, (3-amino-5-{[2-fluoro-4-(trifluoromethyl)phenyl]sulfonyl}pyridin-2-yl)(3,3-difluoroazetidin-1-yl)methanone] | 102.0% | 0.0082 µM | 71.5% | 0.683 µM
8 | CC(C)(C)c1ccc(S(=O)(=O)c2cnc(C(=O)NCC(O)C(F)(F)F)c(N)c2)cc1 (stereo not shown) [Compound 247, 3-amino-5-[(4-tert-butylphenyl)sulfonyl]-N-(3,3,3-trifluoro-2-hydroxypropyl)pyridine-2-carboxamide] | 114.5% | 0.0043 µM | 98.7% | 0.219 µM
9 | Nc1cc(S(=O)(=O)c2ccc(OC(F)(F)F)cc2)cnc1C(=O)NC1CC(F)(F)C1 [Compound 122, 3-amino-N-(3,3-difluorocyclobutyl)-5-{[4-(trifluoromethoxy)phenyl]sulfonyl}pyridine-2-carboxamide] | 83.2% | 0.0353 µM | 50.9% | 0.425 µM
10 | C[C@H]1CCCN1S(=O)(=O)c1cnc(C(=O)N2CC(C(N)=O)C2)c(N)c1 [Compound 271, 1-[(3-amino-5-{[(2S)-2-methylpyrrolidin-1-yl]sulfonyl}pyridin-2-yl)carbonyl]azetidine-3-carboxamide] | 20.4% | > 2 µM | 2.5% | > 10 µM
11 | Nc1cc(S(=O)(=O)c2ccc(OC(F)(F)F)cc2)cnc1C(=O)NCCCCO [Compound 45, 3-amino-N-(4-hydroxybutyl)-5-{[4-(trifluoromethoxy)phenyl]sulfonyl}pyridine-2-carboxamide] | 93.6% | 0.0837 µM | – | –
12 | CC(C)[C@H](NC(=O)c1ncc(S(=O)(=O)c2ccc(OC(F)(F)F)cc2)cc1N)C(N)=O [Compound 49, 3-amino-N-[(2S)-1-amino-3-methyl-1-oxobutan-2-yl]-5-{[4-(trifluoromethoxy)phenyl]sulfonyl}pyridine-2-carboxamide] | 132.0% | 0.125 µM | – | –
13 | Nc1cc(S(=O)(=O)c2ccccc2)c(C2CC2)nc1C(=O)NCCO [Compound 260, 3-amino-6-cyclopropyl-N-(2-hydroxyethyl)-5-(phenylsulfonyl)pyridine-2-carboxamide] | 85.2% | 0.0425 µM | – | –
14 | Nc1cc(S(=O)(=O)c2ccc(OC(F)(F)F)cc2)cnc1C(=O)NC(CO)CO [Compound 44, 3-amino-N-(1,3-dihydroxypropan-2-yl)-5-{[4-(trifluoromethoxy)phenyl]sulfonyl}pyridine-2-carboxamide] | 73.9% | 0.323 µM | – | –
15 | CNC(=O)[C@@H](NC(=O)c1ncc(S(=O)(=O)c2ccc(OC(F)(F)F)cc2)cc1N)C(C)(C)C [Compound 47, 3-amino-N-[(2S)-3,3-dimethyl-1-(methylamino)-1-oxobutan-2-yl]-5-{[4-(trifluoromethoxy)phenyl]sulfonyl}pyridine-2-carboxamide] | 84.8% | 0.503 µM | – | –
16 | CCNC(=O)CNC(=O)c1ncc(S(=O)(=O)c2ccc(OC(F)(F)F)cc2)cc1N [Compound 48, 3-amino-N-[2-(ethylamino)-2-oxoethyl]-5-{[4-(trifluoromethoxy)phenyl]sulfonyl}pyridine-2-carboxamide] | 103.0% | 0.0211 µM | – | –
17 | CC(C)C[C@H](NC(=O)c1ncc(S(=O)(=O)c2ccc(OC(F)(F)F)cc2)cc1N)C(N)=O [Compound 56, N^2-[(3-amino-5-{[4-(trifluoromethoxy)phenyl]sulfonyl}pyridin-2-yl)carbonyl]-L-leucinamide] | 99.4% | 0.369 µM | – | –
18 | Nc1cc(S(=O)(=O)c2ccc(OC(F)(F)F)cc2)cnc1C(=O)NC1(C(F)(F)F)CCOCC1 [Compound 193, 3-amino-5-{[4-(trifluoromethoxy)phenyl]sulfonyl}-N-[4-(trifluoromethyl)tetrahydro-2H-pyran-4-yl]pyridine-2-carboxamide] | 26.7% | > 2 µM | – | –
19 | CC[C@H](NC(=O)c1ncc(S(=O)(=O)c2ccc(OC(F)(F)F)cc2)cc1N)C(N)=O [Compound 93, 3-amino-N-[(2S)-1-amino-1-oxobutan-2-yl]-5-{[4-(trifluoromethoxy)phenyl]sulfonyl}pyridine-2-carboxamide] | 96.5% | 0.0955 µM | – | –
20 | COc1ccc(C(CO)NC(=O)c2ncc(S(=O)(=O)c3ccc(OC(F)(F)F)cc3)cc2N)cc1 (stereo not shown) [Compound 96, 3-amino-N-[2-hydroxy-1-(4-methoxyphenyl)ethyl]-5-{[4-(trifluoromethoxy)phenyl]sulfonyl}pyridine-2-carboxamide] | 105.0% | 0.245 µM | – | –
21 | CC(CC(N)=O)NC(=O)c1ncc(S(=O)(=O)c2ccc(OC(F)(F)F)cc2)cc1N (stereo not shown) [Compound 55, 3-amino-N-(4-amino-4-oxobutan-2-yl)-5-{[4-(trifluoromethoxy)phenyl]sulfonyl}pyridine-2-carboxamide] | 37.6% | > 2 µM | – | –
22 | CCNC(=O)C(C)NC(=O)c1ncc(S(=O)(=O)c2ccc(OC(F)(F)F)cc2)cc1N (stereo not shown) [Compound 43, 3-amino-N-[1-(ethylamino)-1-oxopropan-2-yl]-5-{[4-(trifluoromethoxy)phenyl]sulfonyl}pyridine-2-carboxamide] | 92.6% | 0.236 µM | – | –
23 | Cc1ccc(C(CO)NC(=O)c2ncc(S(=O)(=O)c3ccc(OC(F)(F)F)cc3)cc2N)cc1 (stereo not shown) [Compound 41, 3-amino-N-[2-hydroxy-1-(4-methylphenyl)ethyl]-5-{[4-(trifluoromethoxy)phenyl]sulfonyl}pyridine-2-carboxamide] | 101.0% | 0.184 µM | – | –
